Measurements as given in US8344022B2, “Vaginal health products” (Kimberly-Clark Worldwide, Inc., priority 2004, dated 2013).
“And” between values parts separate entries of the source, which are not always exact repeats. Identical values can stand only once.

How the values were obtained:
[1] = system: Human cervical epithelial cells (ME-180); experiment: ME-180 cell growth with jasmonic acid (hemocytometer counting); format: cell-based; conditions: 1, 10 and 100 μg/ml, two days
Description: Human cervical epithelial cells (ME-180, ATCC) were propagated in culture at 37° C. using 5% CO2 in McCoy's 5A media (Invitrogen) with 10% heat-inactivated fetal bovine serum (Invitrogen). Jasmonic acid (Sigma) was diluted in the ME-180 media to 100, 10, and 1 microgram/mL.
ME-180 cells were plated in 12-well plates at a concentration of 5×10^4 cells per well in 2 mL of media. The cells were allowed to grow for 1 day. Cells in three wells were counted by trypsinizing and using a hemocytometer to determine cell number on day zero. The media was removed from all other wells and was replaced with fresh media, 100, 10, or 1 μg/mL jasmonic acid-containing media (2 mL) in triplicate. Cells were counted on days 1 and 2 to determine the effect of the jasmonic acid on cell growth.

[2] = system: collagen production in human skin fibroblast cell line; experiment: Collagen production by human skin fibroblasts (Takara EIA MK101); format: cell-based; conditions: for Collagen Production, Mean (absorbance at 450 nm) / Collagen Production, Median (absorbance at 450 nm): 48 hours, n=2
Description: The cells were first grown in a 96-well assay system using Dulbecco's Modified Eagle's Medium (DMEM) with 10% fetal bovine serum (FBS) both purchased from Sigma Chemical Co, St. Louis, Mo. Serum-free DMEM was used as a control.
The assay was done by using the recommended 20 ul of the supernatant from each well of the 96-well plate. Standard buffer and stop solutions were freshly prepared before running the assay. 100 ul of antibody-POD conjugate solution (supplied with the kit) was added into the wells using pre antibody coated 96 well plate (supplied with the kit). 20 ul of standard and test solutions (from the other 96-well plate containing fibroblasts) were added to appropriate wells. Plate was mixed gently, sealed and incubated for three hrs. at 37° C.
After incubation each well was washed carefully four times with PBS buffer (400 ul). All the wells were completely emptied at the end of washing from any liquid.
100 ul of substrate solution (hydrogen peroxide and tetramethylbenzidine in a buffer solution, supplied with the kit) was added to each well and the plate was incubated for 15 minutes. At this point 100 ul of stop solution (freshly prepared 1N H2SO4) was added to each well in the same order as substrate. The plate was gently mixed and absorbance was read at 450 nm.

stratum corneum = experiment: Dansyl chloride cell renewal study in healthy female volunteers; format: in vivo, human
From the text: The stratum corneum renewal time is the time taken for the whole thickness of the stratum corneum to be exfoliated and replaced by new cells from the dividing epidermis. This renewal time is a fundamental indicator of skin health. […] See Jansen L H, Hojyo-Tomoko M T, Kligman A M., Improved fluorescence staining technique for estimating turnover of the human stratum corneum, Br J Dermatol., 90, 9-12, 1974; Ridge B D, Batt M D, Palmer H E, Jarrett A, The dansyl chloride technique for stratum corneum renewal as an indicator of changes in epidermal mitotic activity following topical treatment., Br J Dermatol., 118, 167-74, 1988; Grove G L, Kligman A M, Age-associated changes in human epidermal cell renewal., J Geron., 38, 137-142, 1983. The time required for the dye to disappear is therefore an indication of the turnover time of the stratum corneum. Therefore, any differences in the time required for the dye to disappear from treated and non-treated sites can be considered to be an expression of that product's ability to enhance epidermal renewal.
A dansyl chloride cell renewal study was conducted in healthy female volunteers ranging from 43-64 years of age. The study consisted of a two-week treatment period during which time the products were applied topically twice daily, including on weekend days, to the test sites. The area of application was designated, approximately 5 cm×10 cm on the upper inner arm. The other arm served as a control with no product application. […] Eight females received jasmonic acid and seven females received gibberellic acid.
The time required for a marker dye to disappear was used as the measure of cell renewal rate.

[3] = system: fibronectin production in human skin fibroblast cell line; experiment: Fibronectin production by human skin fibroblasts (Takara EIA MK115); format: cell-based; conditions: for fibronectin production, Mean (absorbance at 450 nm) / fibronectin production, Median (absorbance at 450 nm): 48 hours, n=2
Description: The cells were first grown in a 96-well assay system using Dulbecco's Modified Eagle's Medium (DMEM) with 10% fetal bovine serum (FBS) both purchased from Sigma Chemical Co, St. Louis, Mo. Serum-free DMEM was used as a control. […] The fibronectin assay was performed using the recommended 100 μl of the supernatant from each well of the 96-well plate. Standard buffer and stop solutions were freshly prepared before running the assay. A pre-antibody-coated 96 well plate (provided with the kit) was used to transfer the test samples and control. The plate was mixed, sealed and incubated for 1 hour at 37° C. All the wells were washed after removing sample solutions, 3 times (300 μl) with washing buffer. 100 ul of antibody-POD conjugate solution was added into the wells. Plate was mixed, sealed and incubated for one hour at 37° C. Solutions were removed and the wells were washed 3 times with washing buffer. All the wells were completely emptied at the end of washing from any liquid. 100 μl of substrate solution (hydrogen peroxide and tetramethylbenzidine in a buffered solution) was added to each well and the plate was incubated at room temperature for 15 minutes. 100 μl of stop solution (freshly prepared 1N H2SO4) was added to each well in the same order as substrate. The plate was gently mixed and absorbance was read at 450 nm.

human skin keratinocytes = experiment: Keratinocyte proliferation, 96-well Cell Titer 96 assay; format: cell-based; conditions: for Cell Proliferation, Mean (absorbance at 490 nm) / Cell Proliferation, Median (absorbance at 490 nm): 48 hours, n=5
Description: The proliferative response of these human skin keratinocytes to the test compounds was measured in a 96-well assay system using keratinocyte basal medium (KBM, Clonetics, catalog number CC-3103) as a control. […] In addition, 100 μl of vehicle KBM was added to 5 wells as control. […] The spectrophotometric absorbance of each well was read at 490 nm.

## CC/C=C\C[C@H]1C(=O)CC[C@@H]1CC(=O)O [jasmonic acid]
[1]
  ME-180 epithelial cell growth (FIGS. 8 and 9): increased cell growth in a dose dependent manner
[2]; 1×10^−4 M
  Collagen Production, Mean (absorbance at 450 nm): 0.8040
  Collagen Production, Median (absorbance at 450 nm): 0.8040
[2]; 1×10^−4 to 1×10^−6 M
  collagen production in human fibroblasts (summary in words): stimulate collagen production
[2]; 1×10^−5 M
  Collagen Production, Mean (absorbance at 450 nm): 0.7895
  Collagen Production, Median (absorbance at 450 nm): 0.7895
[2]; 1×10^−6 M
  Collagen Production, Mean (absorbance at 450 nm): 0.7475
  Collagen Production, Median (absorbance at 450 nm): 0.7475
Stratum corneum; human, in vivo
  skin irritation or redness: no visible sign of any skin irritation or redness
Stratum corneum; individual patients (one value per patient #), 0.25% in hyaluronic acid (0.5% aqueous solution), topical twice daily, upper inner arm, listed as JA
  RENEWAL, time for cell renewal of treated skin: 16 Days and 15 Days (2×) and 17 Days and 14 Days and 11 Days and 12 Days (2×)
Stratum corneum; overall, 0.25% topical, vs untreated arm
  faster cell renewal rate over control: 28%
Stratum corneum; vs volunteers' control without treatment
  reduction in time required for cell renewal vs untreated control: about 28%
[3]; 1×10^−4 M
  fibronectin production, Mean (absorbance at 450 nm): 0.2060
  fibronectin production, Median (absorbance at 450 nm): 0.2060
[3]; 1×10^−5 M
  fibronectin production, Mean (absorbance at 450 nm): 0.2025
  fibronectin production, Median (absorbance at 450 nm): 0.2025
[3]; 1×10^−6 M
  fibronectin production, Mean (absorbance at 450 nm): 0.1955
  fibronectin production, Median (absorbance at 450 nm): 0.1955
[3]; all concentrations tested, vs control
  fibronectin production in human fibroblasts (summary in words): effective
Human skin keratinocytes; 1×10^−4 M
  Cell Proliferation, Mean (absorbance at 490 nm): 0.5732
  Cell Proliferation, Median (absorbance at 490 nm): 0.5860
Human skin keratinocytes; 1×10^−4 to 1×10^−6 M
  cell proliferating activity on human keratinocytes (summary in words): strong cell proliferating activity
Human skin keratinocytes; 1×10^−5 M
  Cell Proliferation, Mean (absorbance at 490 nm): 0.7628
  Cell Proliferation, Median (absorbance at 490 nm): 0.7750
Human skin keratinocytes; 1×10^−6 M
  Cell Proliferation, Mean (absorbance at 490 nm): 0.7734
  Cell Proliferation, Median (absorbance at 490 nm): 0.7970
